Measured values as given in PubChem BioAssay (NCI).
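Following 48 hours of exposure in 96-well plates, responses at five concentrations were used to interpolate endpoints linearly. At the GI50, growth is halved. At the TGI there is no net growth.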

Experiments:
Experiment in all cases: NCI-60 cell line screen, 48 h
LOX IMVI melanoma = system: LOX IMVI melanoma
ACHN renal = system: ACHN renal
NCI-H522 lung = system: NCI-H522 lung
RXF 393 renal = system: RXF 393 renal
HCT-15 colon = system: HCT-15 colon
NCI-H460 lung = system: NCI-H460 lung
UACC-257 melanoma = system: UACC-257 melanoma
TK-10 renal = system: TK-10 renal
PC-3 prostate = system: PC-3 prostate
HL-60(TB) leukemia = system: HL-60(TB) leukemia

Cc1ccc(N=C[N-]c2ccc(C)cc2)cc1.Cc1ccc(N=C[N-]c2ccc(C)cc2)cc1.O=C([O-])C(F)(F)F.O=C([O-])C(F)(F)F.[OH3+].[OH3+].[Rh+2].[Rh+2]
GI50 (LOX IMVI melanoma): 31.1 µM
TGI (LOX IMVI melanoma): > 100 µM
GI50 (ACHN renal): 44.7 µM
TGI (ACHN renal): > 100 µM
GI50 (NCI-H522 lung): 23.4 µM
TGI (NCI-H522 lung): 53.2 µM
GI50 (RXF 393 renal): 15.1 µM
TGI (RXF 393 renal): 33.1 µM
GI50 (HCT-15 colon): 46.1 µM
TGI (HCT-15 colon): > 100 µM
GI50 (NCI-H460 lung): > 100 µM
TGI (NCI-H460 lung): > 100 µM
GI50 (UACC-257 melanoma): 64.7 µM
TGI (UACC-257 melanoma): > 100 µM
GI50 (TK-10 renal): 50.2 µM
TGI (TK-10 renal): > 100 µM

CN1Cc2ccccc2/C=C\c2ccccc21
TGI (LOX IMVI melanoma): > 100 µM
TGI (ACHN renal): > 100 µM
TGI (NCI-H522 lung): > 100 µM
TGI (PC-3 prostate): > 100 µM
TGI (RXF 393 renal): > 100 µM
TGI (HCT-15 colon): > 100 µM
TGI (NCI-H460 lung): > 100 µM
TGI (UACC-257 melanoma): > 100 µM
TGI (TK-10 renal): > 100 µM

COCCOc1cc(C)cc(/C=C(C)/C=C/C2=C(C)CCCC2(C)C)n1
TGI (LOX IMVI melanoma): > 100 µM
TGI (ACHN renal): > 100 µM
TGI (NCI-H522 lung): > 100 µM
TGI (RXF 393 renal): > 100 µM
TGI (NCI-H460 lung): > 100 µM
TGI (UACC-257 melanoma): > 100 µM
TGI (TK-10 renal): > 100 µM

NC1c2ccccc2Nc2ccccc21
TGI (LOX IMVI melanoma): 13.2 µM
TGI (HL-60(TB) leukemia): 16.3 µM
TGI (ACHN renal): 24.6 µM
TGI (NCI-H522 lung): 5.2 µM
TGI (RXF 393 renal): 15.9 µM
TGI (HCT-15 colon): 14 µM
TGI (NCI-H460 lung): 11.1 µM
TGI (UACC-257 melanoma): 17.4 µM
TGI (TK-10 renal): 29.8 µM

O=C(C(=O)n1ncc(Cl)c(Cl)c1=O)n1ncc(Cl)c(Cl)c1=O
TGI (LOX IMVI melanoma): > 100 µM
TGI (HL-60(TB) leukemia): 22.6 µM
TGI (ACHN renal): 32.9 µM
TGI (NCI-H522 lung): 28.1 µM
TGI (HCT-15 colon): 46.5 µM
TGI (NCI-H460 lung): > 100 µM
TGI (UACC-257 melanoma): 35.7 µM
TGI (TK-10 renal): 70.1 µM

CCCCCC(=O)Nc1nc2nc[nH]c2c(=O)[nH]1
TGI (HL-60(TB) leukemia): > 100 µM
TGI (ACHN renal): > 100 µM
TGI (NCI-H522 lung): > 100 µM
TGI (RXF 393 renal): > 100 µM
TGI (HCT-15 colon): > 100 µM
TGI (NCI-H460 lung): > 100 µM
TGI (UACC-257 melanoma): > 100 µM
TGI (TK-10 renal): > 100 µM

C=C1C(O)C2CC(C)(CO)C(=O)C2=C(CC(C)C)C12CC2 (centres undefined)
GI50 (LOX IMVI melanoma): 57.9 µM
TGI (LOX IMVI melanoma): > 100 µM
GI50 (ACHN renal): 93.8 µM
TGI (ACHN renal): > 100 µM
GI50 (NCI-H522 lung): 68.4 µM
TGI (NCI-H522 lung): > 100 µM
GI50 (PC-3 prostate): 56 µM
TGI (PC-3 prostate): > 100 µM
GI50 (RXF 393 renal): > 100 µM
TGI (RXF 393 renal): > 100 µM
GI50 (HCT-15 colon): 82.3 µM
TGI (HCT-15 colon): > 100 µM
GI50 (NCI-H460 lung): 67 µM
TGI (NCI-H460 lung): > 100 µM
GI50 (UACC-257 melanoma): 52.1 µM
TGI (UACC-257 melanoma): > 100 µM
GI50 (TK-10 renal): 52.9 µM
TGI (TK-10 renal): > 100 µM

Cc1cccc(C(=O)O)c1C(=O)c1cccc2ccccc12
TGI (LOX IMVI melanoma): > 100 µM
TGI (ACHN renal): > 100 µM
TGI (NCI-H522 lung): > 100 µM
TGI (RXF 393 renal): > 100 µM
TGI (HCT-15 colon): > 100 µM
TGI (NCI-H460 lung): > 100 µM
TGI (UACC-257 melanoma): > 100 µM
TGI (TK-10 renal): > 100 µM

CC1=C(SC#N)S(=O)(=O)N(c2ccccc2)C(C)=C1SC#N
TGI (LOX IMVI melanoma): > 100 µM
TGI (HL-60(TB) leukemia): > 100 µM
TGI (ACHN renal): > 100 µM
TGI (NCI-H522 lung): > 100 µM
TGI (RXF 393 renal): > 100 µM
TGI (HCT-15 colon): > 100 µM
TGI (NCI-H460 lung): > 100 µM
TGI (UACC-257 melanoma): > 100 µM
TGI (TK-10 renal): > 100 µM

CCCCCCCC1(c2ccc(N)cc2)CCC(=O)NC1=O (centres undefined)
TGI (LOX IMVI melanoma): > 100 µM
TGI (HL-60(TB) leukemia): 36.6 µM
TGI (ACHN renal): 67.3 µM
TGI (NCI-H522 lung): 78.6 µM
TGI (RXF 393 renal): > 100 µM
TGI (HCT-15 colon): > 100 µM
TGI (NCI-H460 lung): > 100 µM
TGI (UACC-257 melanoma): > 100 µM
TGI (TK-10 renal): > 100 µM

COc1cc(OC)cc(C2C3=C(COC3=O)Nc3cc(OC)ccc32)c1 (centres undefined)
GI50 (LOX IMVI melanoma): < 0.01 µM
TGI (LOX IMVI melanoma): > 44.1 µM
GI50 (HL-60(TB) leukemia): < 0.01 µM
TGI (HL-60(TB) leukemia): < 0.0186 µM
GI50 (ACHN renal): < 0.01 µM
TGI (ACHN renal): 33.9 µM
GI50 (NCI-H522 lung): < 0.01 µM
TGI (NCI-H522 lung): 0.836 µM
GI50 (PC-3 prostate): < 0.01 µM
TGI (PC-3 prostate): > 42.3 µM
GI50 (HCT-15 colon): < 0.01 µM
TGI (HCT-15 colon): > 42.6 µM
GI50 (NCI-H460 lung): < 0.01 µM
TGI (NCI-H460 lung): 0.495 µM
GI50 (UACC-257 melanoma): > 36.9 µM
TGI (UACC-257 melanoma): > 100 µM
GI50 (TK-10 renal): 22.2 µM
TGI (TK-10 renal): > 92.5 µM

Cc1ccc(NC(=O)C(=O)CC(=O)c2c(C)n([O-])c3ccccc3[n+]2=O)cc1C
TGI (LOX IMVI melanoma): > 100 µM
TGI (HL-60(TB) leukemia): > 100 µM
TGI (ACHN renal): > 100 µM
TGI (NCI-H522 lung): > 100 µM
TGI (RXF 393 renal): > 100 µM
TGI (HCT-15 colon): > 100 µM
TGI (NCI-H460 lung): > 100 µM
TGI (UACC-257 melanoma): > 100 µM
TGI (TK-10 renal): > 100 µM

COC(=O)Nc1nc2ccccc2[nH]1
TGI (LOX IMVI melanoma): > 100 µM
TGI (HL-60(TB) leukemia): > 31.2 µM
TGI (ACHN renal): > 100 µM
TGI (PC-3 prostate): > 100 µM
TGI (RXF 393 renal): > 100 µM
TGI (HCT-15 colon): > 100 µM
TGI (NCI-H460 lung): > 100 µM
TGI (UACC-257 melanoma): > 100 µM
TGI (TK-10 renal): > 100 µM

Clc1ccc(-c2c3ccc(=[N+]4CCCCC4)cc-3oc3cc(N4CCCCC4)ccc23)cc1
GI50 (HL-60(TB) leukemia): 0.0942 µM
TGI (HL-60(TB) leukemia): 0.471 µM
GI50 (ACHN renal): 0.0909 µM
TGI (ACHN renal): 0.229 µM
GI50 (RXF 393 renal): 0.129 µM
TGI (RXF 393 renal): 0.279 µM
GI50 (UACC-257 melanoma): 0.13 µM
TGI (UACC-257 melanoma): 0.304 µM
GI50 (TK-10 renal): 0.129 µM
TGI (TK-10 renal): 0.345 µM

CCC[CH2][Sn]([CH2]CCC)([S]C#N)[S]C#N
GI50 (LOX IMVI melanoma): 0.85 µM
TGI (LOX IMVI melanoma): 2.47 µM
GI50 (HL-60(TB) leukemia): 0.389 µM
TGI (HL-60(TB) leukemia): 1.45 µM
GI50 (ACHN renal): 1.24 µM
TGI (ACHN renal): 2.48 µM
GI50 (NCI-H522 lung): 0.0451 µM
TGI (NCI-H522 lung): 0.224 µM
GI50 (RXF 393 renal): 0.342 µM
TGI (RXF 393 renal): 1.33 µM
GI50 (HCT-15 colon): 1.18 µM
TGI (HCT-15 colon): 2.53 µM
GI50 (NCI-H460 lung): 2.14 µM
TGI (NCI-H460 lung): 4.96 µM
GI50 (UACC-257 melanoma): 0.965 µM
TGI (UACC-257 melanoma): 2.4 µM
GI50 (TK-10 renal): 1.11 µM
TGI (TK-10 renal): 2.4 µM

COc1cc(/C=C/c2ccc(O)c(OC)c2)cc(OC)c1
TGI (HL-60(TB) leukemia): 78.1 µM
TGI (ACHN renal): 80 µM
TGI (PC-3 prostate): 46.8 µM
TGI (RXF 393 renal): > 100 µM
TGI (HCT-15 colon): 45.8 µM
TGI (NCI-H460 lung): 52.5 µM
TGI (UACC-257 melanoma): 80.6 µM
TGI (TK-10 renal): 68.3 µM

N#CC(C(=O)CCCC(=O)Nc1ccc(Cl)cc1Cl)c1ccccc1 (centres undefined)
TGI (LOX IMVI melanoma): > 100 µM
TGI (HL-60(TB) leukemia): > 100 µM
TGI (ACHN renal): > 100 µM
TGI (RXF 393 renal): > 100 µM
TGI (HCT-15 colon): > 100 µM
TGI (NCI-H460 lung): > 100 µM
TGI (UACC-257 melanoma): > 100 µM
TGI (TK-10 renal): > 100 µM

Cc1ccc(C)c(N2C(=O)C(=O)C(c3nc4ccccc4o3)C(=O)C2=O)c1
TGI (HL-60(TB) leukemia): 61.3 µM
TGI (ACHN renal): > 100 µM
TGI (RXF 393 renal): > 100 µM
TGI (HCT-15 colon): > 100 µM
TGI (NCI-H460 lung): > 100 µM
TGI (UACC-257 melanoma): > 100 µM
TGI (TK-10 renal): > 100 µM

O=C(CN(/C=C/C(=O)C(F)(F)F)c1ccc(Cl)cc1)c1ccc(Cl)c(Cl)c1
GI50 (LOX IMVI melanoma): 4.13 µM
TGI (LOX IMVI melanoma): 16.6 µM
GI50 (ACHN renal): 2.48 µM
TGI (ACHN renal): 9.74 µM
GI50 (NCI-H522 lung): 2.88 µM
TGI (NCI-H522 lung): 8.81 µM
GI50 (PC-3 prostate): 4.25 µM
TGI (PC-3 prostate): 16.7 µM
GI50 (RXF 393 renal): 14.1 µM
TGI (RXF 393 renal): 36.1 µM
GI50 (HCT-15 colon): 4.24 µM
TGI (HCT-15 colon): 17.2 µM
GI50 (NCI-H460 lung): 3.18 µM
TGI (NCI-H460 lung): 9.36 µM
GI50 (UACC-257 melanoma): 14 µM
TGI (UACC-257 melanoma): 30.2 µM
GI50 (TK-10 renal): 7.38 µM
TGI (TK-10 renal): 20.1 µM

CCCCCCCCCCCCC(O)c1ccco1 (centres undefined)
GI50 (LOX IMVI melanoma): 17.9 µM
TGI (LOX IMVI melanoma): 32.2 µM
GI50 (ACHN renal): 17.9 µM
TGI (ACHN renal): 31.7 µM
GI50 (NCI-H522 lung): 20 µM
TGI (NCI-H522 lung): 41 µM
GI50 (PC-3 prostate): 16.9 µM
TGI (PC-3 prostate): 30.7 µM
GI50 (RXF 393 renal): 24 µM
TGI (RXF 393 renal): 44.7 µM
GI50 (HCT-15 colon): 19.2 µM
TGI (HCT-15 colon): 36 µM
GI50 (NCI-H460 lung): 29.5 µM
TGI (NCI-H460 lung): > 100 µM
GI50 (UACC-257 melanoma): 22.6 µM
TGI (UACC-257 melanoma): 39.4 µM
GI50 (TK-10 renal): 22.8 µM
TGI (TK-10 renal): 40.9 µM
